Results from patent US12729194B2, “Compounds for the treatment of human immunodeficiency virus” (priority 2019, dated 2026).

What was measured:
HIV-1 with HIV-1AD8 Env = experiment: microbe, parasite or virus in culture; type: cell-based; conditions: Human immunodeficiency virus 1; Cf2Th-CD4/CCR5 target cells, 48 hours, luciferase; means and standard errors of four experiments; read-out: 50% inhibitory concentration (IC50), AD8
HIV-1 with BG505 Env = experiment: microbe, parasite or virus in culture; type: cell-based; conditions: Human immunodeficiency virus 1; Cf2Th-CD4/CCR5 target cells, 48 hours, luciferase; means and standard errors of four experiments; read-out: 50% inhibitory concentration (IC50), BG505
[1] = tested on: HIV-1 with JR-FL S375W Env; type: cell-based; conditions: Cf2Th-CD4/CCR5 target cells, 48 hours, luciferase; read-out: 50% inhibitory concentration (IC50), JR-FL S375W
[2] = tested on: envelope glycoproteins of the amphotropic murine leukemia virus (AMLV); experiment: microbe, parasite or virus in culture; type: cell-based; conditions: Cf2Th-CD4/CCR5 target cells, 48 hours, luciferase, specificity control, read-out: 50% inhibitory concentration (IC50), AMLV
HIV-1AD8 Env on VLPs [3] = experiment: Reversibility of compound effects on VLP Env conformation (19b antibody recognition after washing)
Description: Characterization of VLP-associated Env: To prepare VLPs with HIV-1AD8 Env, 150-mm dishes of 30-40% confluent A549-Gag/Env cells were seeded and, on the following day, treated with 2 μg/ml doxycycline. Approximately 72 hours after induction, cell supernatants were harvested and cleared by low-speed centrifugation (500×g for 15 minutes at 4° C.) and 0.45-μ filtration. VLPs were pelleted by centrifugation at 100,000×g for one hour at 4° C. The resuspended VLP preparation was clarified by low-speed centrifugation. BMS-806 and compounds described herein were added to the clarified VLP-containing suspensions. In some cases, the VLP-compound mixtures were irradiated with a 100-watt, 365-nm ultraviolet (UV) lamp for 10 minutes at room temperature. For all UV studies, exposure of the samples to visible light was minimized.
For studies of the reversibility of effects, the compounds were added to the VLPs and mixed for several seconds at room temperature. Then the VLPs were pelleted (20,000×g for 30 minutes at 4° C.) twice, washing with 1.5 ml PBS with 2% DMSO. The pelleted VLPs were resuspended in 1 ml PBS with 2% DMSO and incubated at room temperature for various lengths of time (20 minutes—3 weeks). Control VLPs were incubated in the continued presence of the compounds at room temperature for the same length of time. Then the VLPs were pelleted (20,000×g for 30 minutes at 4° C.) and the pellet incubated with 1.5% Triton X-100 for 30 minutes at 4° C. The VLP lysates were centrifuged (20,000×g for 30 minutes at 4° C.) and the supernatants were incubated with antibodies (10 μg/ml) in a 50-μl volume with 25 mg/ml of Protein A-Sepharose beads for one hour at 4° C. The beads were pelleted (1000 rpm for 1 minute at room temperature) and washed three times with 1 ml wash buffer with 1% Triton X-100. The beads were suspended in NuPAGE LDS Sample Buffer (ThermoFisher), boiled and analyzed by Western blot, as described above.
The BMS-806-induced decrease in binding of the 19b anti-V3 antibody can be used as an indicator of BMS-806-Env binding, allowing estimation of the stability of the Env-compound complex. BMS-806 and BMS-529 were incubated with the HIV-1AD8 Env on VLPs. The VLPs were then washed and incubated at room temperature for various lengths of time in a buffer with (+/+) or without (+/−) compound. After this incubation, Env conformation was assessed using the 19b anti-V3 antibody, the 2G12 antibody (the binding of which is not affected by BMS-806), and a negative control human immunoglobulin (hIgG) preparation. 19b recognition of Env in the washed samples (+/−) was compared with those in the samples continuously incubated with the compound (+/+) and the untreated samples (−) (FIG. 4). […] Despite this slow rate of dissociation of compounds described herein from Env, the binding and the consequent effects of these compounds on Env conformation appear to be reversible.

HIV-1AD8 Env on VLPs [4] = experiment: Shedding of gp120 from VLP Env; conditions: 4° C. and 37° C., 4 days, no detergent
Description: Shedding of gp120 from VLP Env: The effect of compounds on the spontaneous shedding of gp120 from VLP Env was evaluated. VLPs with the wild-type HIV-1AD8 Env were prepared from the supernatants of A549-Gag/Env cells, as described above. The VLPs were suspended in PBS, to which was added either DMSO or a compound described herein. An aliquot of the VLP suspension in PBS/DMSO was processed as described below to serve as a Day 0 control. The VLP suspensions were incubated for 4 days at 4° C., room temperature or 37° C. (with gentle rocking). Then the VLPs were pelleted (100,000×g for 30 min at 4° C.). The pellets and supernatants were boiled in LDS sample buffer and analyzed by Western blotting with either 1:2000 goat anti-gp120 polyclonal antibody (ThermoFisher) and HRP-conjugated rabbit anti-goat IgG antibody, or with 1:5000 rabbit anti-Gag p55/p24/p17 antibody (Abcam) and HRP-conjugated goat anti-rabbit IgG antibody (Abcam).

**Q.** `COc1ccc(-c2ccc(CNC(=O)c3c(F)c(F)c(N=[N+]=[N-])c(F)c3F)o2)c2[nH]cc(C(=O)C(=O)N3CCN(C(=O)c4ccccc4)CC3)c12` [AEG-II-168] was tested. Which IC50 (HIV-1 with HIV-1AD8 Env) did it give?
**A.** Its IC50 is 2.8 nM.

**Q.** What about the IC50 (HIV-1 with BG505 Env) of the same compound?
**A.** Its IC50 is 0.22 nM.

**Q.** And the IC50 [1]?
**A.** The IC50 was > 100 nM.

**Q.** And the IC50 [2]?
**A.** Its IC50 is > 100 nM.

**Q.** And the “Durability / reversibility of Env conformational effects (in words)” value (HIV-1AD8 Env on VLPs [3]; after washing)?
**A.** The value was “at least three weeks”.

**Q.** What about the “Spontaneous shedding of gp120 into the VLP supernatant” value (HIV-1AD8 Env on VLPs [4]) of the same compound?
**A.** Its value is “decreased the shedding of gp120”.

**Q.** With `COc1ccnc2[nH]cc(C(=O)C(=O)N3CCN(C(=O)c4ccccc4)C[C@H]3C)c12` [BMS-806, reference compound] as the compound, how does the IC50 (HIV-1 with HIV-1AD8 Env) read?
**A.** The IC50 was 0.4 nM.

**Q.** What about the IC50 (HIV-1 with BG505 Env) of the same compound?
**A.** Its IC50 is 0.8 nM.

**Q.** What about the IC50 [1] of the same compound?
**A.** Its IC50 is > 100 nM.

**Q.** What about the IC50 [2] of the same compound?
**A.** Its IC50 is > 100 nM.

**Q.** And the “Conformational effect on 19b binding after washing” value (HIV-1AD8 Env on VLPs [3]; twenty-four hours after washing, room temperature)?
**A.** Its value is “much less evident”.

**Q.** And the “Spontaneous shedding of gp120 into the VLP supernatant” value (HIV-1AD8 Env on VLPs [4])?
**A.** Its value is “decreased the shedding of gp120”.
